Target: T1, human GluR4B receptor (Homo sapiens, UniProt P48058)
T1 construct: expressed in transfected cells; host or cells: HEK293
Assay: potentiation of agonist-induced excitability of human GluR4B receptor expressed in HEK 293 cells
Assay type: cell-based
Source text: The ability of compounds of formula I to potentiate glutamate receptor-mediated response may be determined using fluorescent calcium indicator dyes (Molecular Probes, Eugene, Oreg., Fluo-3) and by measuring glutamate-evoked efflux of calcium into GluR4 transfected HEK293 cells, as described in more detail below.
In one test, 96 well plates containing confluent monolayers of HEK cells stably expressing human GluR4B (obtained as described in European Patent Application Publication Number EP-A1-583917) are prepared. […]
Each test is then performed as follows. […] A second fluorescent reading is taken after 5 minutes incubation. 15 μl of 400 μM glutamate solution is then added to each well (final glutamate concentration 100 μM), and a third reading is taken. The activities of test compounds and cyclothiazide solutions are determined by subtracting the second from the third reading (fluorescence due to addition of glutamate in the presence or absence of test compound or cyclothiazide) and are expressed relative to enhance fluorescence produced by 100 μM cyclothiazide.
In another test, HEK293 cells stably expressing human GluR4 (obtained as described in European Patent Application Publication No. EP-A1-0583917) are used in the electro-physiological characterization of AMPA receptor potentiators. […] Responses to 1 mM glutamate are then determined in the presence of test compound. […]

T1 sequence (P48058 21-902): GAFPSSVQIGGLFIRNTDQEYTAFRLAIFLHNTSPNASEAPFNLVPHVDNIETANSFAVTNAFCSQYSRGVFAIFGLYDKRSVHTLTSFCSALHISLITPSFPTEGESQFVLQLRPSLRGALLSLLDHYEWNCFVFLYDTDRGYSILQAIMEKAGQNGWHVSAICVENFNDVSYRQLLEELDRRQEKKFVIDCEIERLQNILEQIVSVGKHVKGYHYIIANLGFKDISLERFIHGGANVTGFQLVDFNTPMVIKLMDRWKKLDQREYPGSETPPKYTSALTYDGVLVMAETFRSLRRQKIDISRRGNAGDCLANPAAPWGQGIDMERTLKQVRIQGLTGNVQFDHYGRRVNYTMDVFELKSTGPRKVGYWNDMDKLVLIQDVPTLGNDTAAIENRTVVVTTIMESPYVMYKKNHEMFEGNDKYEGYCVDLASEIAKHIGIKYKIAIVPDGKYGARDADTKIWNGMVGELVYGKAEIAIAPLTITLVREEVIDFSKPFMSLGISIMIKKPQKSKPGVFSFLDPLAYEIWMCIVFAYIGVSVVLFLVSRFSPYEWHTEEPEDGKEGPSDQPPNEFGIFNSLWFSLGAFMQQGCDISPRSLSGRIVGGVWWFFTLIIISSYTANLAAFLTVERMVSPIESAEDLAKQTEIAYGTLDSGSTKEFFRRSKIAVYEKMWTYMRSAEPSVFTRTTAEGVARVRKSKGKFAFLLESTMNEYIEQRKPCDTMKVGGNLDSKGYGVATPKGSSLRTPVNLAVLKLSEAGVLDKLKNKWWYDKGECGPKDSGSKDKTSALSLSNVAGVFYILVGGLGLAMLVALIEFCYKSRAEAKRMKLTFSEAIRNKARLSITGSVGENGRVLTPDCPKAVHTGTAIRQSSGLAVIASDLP

Structure (SMILES): NS(=O)(=O)c1cc2c(cc1Cl)NC(C1CC3C=CC1C3)NS2(=O)=O (stereo not shown) [cyclothiazide]
- potentiation of agonist-induced excitability: potentiate agonist-induced excitability
